Experiments:
[1] = Inhibition of recombinant CaMK2 expressed in Sf9cells using autocamtide-2/CAM as substrate after 90 mins; settings: sf9
[2] = Selectivity ratio of IC50 for PKCgamma to IC50 for recombinant CaMK2
[3] = Solubility of the compound in water at pH 7.4; type: physicochemical
[4] = Selectivity ratio of IC50 for MLCK to IC50 for recombinant CaMK2
[5] = Selectivity ratio of IC50 for p38alpha to IC50 for recombinant CaMK2
[6] = Selectivity ratio of IC50 for Akt1 to IC50 for recombinant CaMK2

Compound | IC50 [1] | also measured
O=C(c1ccc(Oc2ccccc2)cc1)c1cc2c(OCCCN3CCCCC3)cccc2[nH]1 | 800 nM | –
CCNCCOc1cccc2[nH]c(C(=O)c3ccc(Oc4ccccc4)cc3)cc12 | 1100 nM | –
CC(C)(Oc1ccc2[nH]c(C(=O)c3ccc(Oc4ccccc4)cc3)cc2c1)C(=O)O | 1500 nM | –
O=C(c1ccc(Oc2ccccc2)cc1)c1cc2c(Br)c(O)ccc2[nH]1 | 40 nM | Ratio IC50 [2]: 550; solubility [3]: < 1 µg/mL; Ratio IC50 [4]: 12; Ratio IC50 [5]: 115; Ratio IC50 [6]: 1500
COc1ccc2[nH]c(C(=O)c3ccc(Oc4ccccc4)cc3)cc2c1 | > 10000 nM | –
Cc1c(O)ccc2[nH]c(C(=O)c3ccc(Oc4ccccc4)cc3)cc12 | 1300 nM | –
O=C(c1ccc(Oc2ccccc2)cc1)c1cc2c(Cl)c(O)c(Cl)cc2[nH]1 | 61 nM | solubility [3]: < 1 µg/mL
O=C(c1ccc(Oc2ccccc2)cc1)c1cc2cc(O)ccc2[nH]1 | 610 nM | Ratio IC50 [2]: 93; Ratio IC50 [4]: < 1; Ratio IC50 [5]: < 1; Ratio IC50 [6]: 295
O=C(c1ccc(Oc2ccccc2)cc1)c1cc2c(OCCN3CCNCC3)cccc2[nH]1 | 270 nM | –
O=C(c1ccc(Oc2ccccc2)cc1)c1cc2c(Cl)c(O)ccc2[nH]1 | 640 nM | –
CCNCCOc1ccc2[nH]c(C(=O)c3ccc(Oc4ccccc4)cc3)cc2c1 | 1500 nM | –
O=C(c1ccc(Oc2ccccc2)cc1)c1cc2c(OCCN3CCC(O)CC3)cccc2[nH]1 | 420 nM | –
O=C(c1ccc(Oc2ccccc2)cc1)c1cc2c(Br)c(O)c(Br)cc2[nH]1 | 12 nM | Ratio IC50 [2]: 1250; solubility [3]: < 1 µg/mL; Ratio IC50 [4]: 63; Ratio IC50 [5]: 450; Ratio IC50 [6]: > 5000
O=C(O)COc1ccc2[nH]c(C(=O)c3ccc(Oc4ccccc4)cc3)cc2c1 | 510 nM | –
NCCOc1cccc2[nH]c(C(=O)c3ccc(Oc4ccccc4)cc3)cc12 | 2600 nM | –
O=C(c1ccc(Oc2ccccc2)cc1)c1cc2c(OCCN3CCCCC3)cccc2[nH]1 | 820 nM | –

From ChEMBL document CHEMBL2203284, “Synthesis and structure based optimization of 2-(4-phenoxybenzoyl)-5-hydroxyindole as a novel CaMKII inhibitor” (Bioorg Med Chem, 2012)
